In the NIST ThermoML archive (doi:10.1021/je020159m):
Numbers after ± are expanded uncertainties.

Legend:
[1] = 298.15 K; 101.33 kPa; Liquid; Vibrating tube method
[2] = excess molar enthalpy (molar enthalpy of mixing); xn = mol fraction of the nth substance listed; details: 298.15 K, 101.33 kPa, Liquid, Flow calorimetry

CCCCCCCCCC [decane]
Details	mass density [kg/m3]
[1]	726.37 ± 0.41

C1CCOC1 [tetrahydrofuran] + CCCCCC
[2]
Details	excess molar enthalpy [kcal/mol]
x1 = 0.05	0.0362 ± 0.000574
x1 = 0.1	0.0678 ± 0.000789
x1 = 0.1499	0.0942 ± 0.001
x1 = 0.2001	0.118 ± 0.0012
x1 = 0.25	0.1371 ± 0.00134
x1 = 0.2998	0.1538 ± 0.00148
x1 = 0.3503	0.1645 ± 0.00158
x1 = 0.4003	0.1733 ± 0.00165
x1 = 0.4504	0.1788 ± 0.0017
x1 = 0.5005	0.1794 ± 0.0017
x1 = 0.5508	0.1793 ± 0.0017
x1 = 0.6003	0.1743 ± 0.00165
x1 = 0.6503	0.1663 ± 0.00158
x1 = 0.7002	0.1544 ± 0.00148
x1 = 0.75	0.1389 ± 0.00136
x1 = 0.8015	0.119 ± 0.0012
x1 = 0.8501	0.0947 ± 0.001
x1 = 0.8998	0.0693 ± 0.000813
x1 = 0.9499	0.0365 ± 0.000574

C1CCCCC1 [cyclohexane]
Details	mass density [kg/m3]
[1]	773.92 ± 0.42

CCCCCC [hexane]
Details	mass density [kg/m3]
[1]	655.42 ± 0.4

C1CCOC1 [tetrahydrofuran] + C1CCCCC1
[2]
Details	excess molar enthalpy [kcal/mol]
x1 = 0.05	0.0385 ± 0.000574
x1 = 0.1	0.0709 ± 0.000813
x1 = 0.15	0.0988 ± 0.00103
x1 = 0.2001	0.121 ± 0.0012
x1 = 0.2499	0.1399 ± 0.00136
x1 = 0.2997	0.1529 ± 0.00148
x1 = 0.35	0.1636 ± 0.00155
x1 = 0.4003	0.1707 ± 0.00163
x1 = 0.4504	0.174 ± 0.00165
x1 = 0.4999	0.1745 ± 0.00165
x1 = 0.5498	0.1722 ± 0.00163
x1 = 0.6	0.1663 ± 0.00158
x1 = 0.65	0.1569 ± 0.00151
x1 = 0.7003	0.1444 ± 0.00141
x1 = 0.7498	0.1264 ± 0.00124
x1 = 0.8	0.108 ± 0.0011
x1 = 0.8505	0.0858 ± 0.000908
x1 = 0.9003	0.0599 ± 0.000717
x1 = 0.95	0.0309 ± 0.000526

C1CCOC1 [tetrahydrofuran] + CCCCCCCCCC
[2]
Details	excess molar enthalpy [kcal/mol]
x1 = 0.05	0.0371 ± 0.000598
x1 = 0.0999	0.0724 ± 0.000837
x1 = 0.15	0.104 ± 0.00108
x1 = 0.2	0.1308 ± 0.00129
x1 = 0.2503	0.1543 ± 0.00151
x1 = 0.3	0.1748 ± 0.00167
x1 = 0.3498	0.1922 ± 0.00182
x1 = 0.4002	0.2066 ± 0.00194
x1 = 0.4509	0.2141 ± 0.00198
x1 = 0.4999	0.2201 ± 0.00206
x1 = 0.5499	0.2222 ± 0.00206
x1 = 0.6002	0.2203 ± 0.00206
x1 = 0.6501	0.2133 ± 0.00198
x1 = 0.7003	0.2016 ± 0.00189
x1 = 0.7502	0.185 ± 0.00174
x1 = 0.8003	0.1621 ± 0.00158
x1 = 0.8502	0.134 ± 0.00134
x1 = 0.9011	0.098 ± 0.00108
x1 = 0.95	0.0545 ± 0.000765

C1CCOC1 [tetrahydrofuran]
Details	mass density [kg/m3]
[1]	882.09 ± 0.46
